# Data taken from ChEMBL document CHEMBL4823249, “Discovery of a Pyrimidinedione Derivative as a Potent and Orally Bioavailable Axl Inhibitor” (J Med Chem, 2021).
# Activity calls are given as the source filed them. No cut-off for these calls is given here.
# Tests used:
# [1] = molecular target: ALK tyrosine kinase receptor (Homo sapiens, UniProt Q9UM73); assay: Inhibition of human ALK (1058 to end residues) using KKKSPGEYVNIEFG as substrate incubated for 40 mins in presence of [gamma-33ATP] by scintillation counting based radiometry assay
# [2] = molecular target: Insulin-like growth factor 1 receptor (Homo sapiens, UniProt P08069); assay: Inhibition of human IGF1R (959 to end residues) using KKKSPGEYVNIEFG as substrate after 40 mins in presence of [gamma-33ATP] by scintillation counting based radiometry assay
# [3] = molecular target: Tyrosine-protein kinase ABL1 (Homo sapiens, UniProt P00519); assay: Inhibition of human recombinant ABL (27 to end residues) using EAIYAAPFAKKK as substrate incubated for 40 mins in presence of [gamma33P-ATP] by radiometric scintillation counting analysis
# [4] = AUC(0 to infinity) in ICR mouse at 3 mg/kg, po measured upto 24 hrs by LC-MS analysis; assay type: ADME, organism-based; design: route oral, dose 3 mg/kg, time <=24; conditions: in vivo
# [5] = molecular target: Tyrosine-protein kinase SYK (Homo sapiens, UniProt P43405); assay: Inhibition of recombinant human full length SYK using poly(Glu, Tyr) 4:1 as substrate incubated for 40 mins in presence of [gamma33P]ATP by scintillation counting based radiometry assay
# [6] = molecular target: Tyrosine-protein kinase receptor TYRO3 (Homo sapiens, UniProt Q06418); assay: Inhibition of recombinant human RSE (451 to end residues) using KVEKIGEGTYGVVYK as substrate incubated for 40 mins in presence of [gamma33P]ATP by scintillation counting based radiometry assay
# [7] = tested on: SNU-449; assay: Antiproliferative activity against human SNU-449 cells at 5 to 125 uM incubated for 72 hrs by SRB or CCK8 assay; assay type: functional, cell-based; conditions: dose 5-125 µM
# [8] = tested on: NCI-H1975; assay: Antiproliferative activity against human NCI-H1975 cells incubated for 72 hrs by SRB or CCK8 assay; assay type: functional, cell-based; conditions: NCI-H1975, 72 h
# [9] = Antiproliferative activity against human JHH7 cells incubated for 72 hrs by SRB or CCK8 assay; assay type: functional, cell-based; conditions: JHH7, 72 h
# [10] = tested on: BT-549; assay: Antiproliferative activity against human BT-549 cells incubated for 72 hrs by SRB or CCK8 assay; assay type: functional, cell-based; conditions: BT-549, 72 h
# [11] = tested on: BaF3; assay: Antitumor activity against mouse BaF3/TEL-AXL cells xenografted in BALB/c nude mouse assessed as tumor growth inhibition at 5 mg/kg, po administered once daily for 14 days by caliper method; assay type: functional; conditions: 336 h, time 14 day, read-out: TGI
# [12] = molecular target: Hepatocyte growth factor receptor (Homo sapiens, UniProt P08581); assay: Inhibition of MET signaling in human MKN45 cells assessed as reduction in phosphorylation of AKT after 2 hrs by Western blotting analysis; assay type: cell-based; conditions: MKN-45, dose 10-100 nM
# [13] = molecular target: CDK6/cyclin D3 (Homo sapiens, UniProt Q00534); assay: Inhibition of recombinant full length human CDK6/CyclinD3C using Rb fragment as substrate incubated for 40 mins in presence of [gamma-33ATP] by scintillation counting based radiometry assay; assay type: protein-complex assay
# [14] = molecular target: T1, Tyrosine-protein kinase receptor UFO (Homo sapiens, UniProt P30530); assay: Inhibition of AXL (unknown origin) using poly [Glu, Tyr] 4:1 as substrate incubated for 60 mins in presence of ATP by ELISA
# T1 sequence (P30530 whole entry): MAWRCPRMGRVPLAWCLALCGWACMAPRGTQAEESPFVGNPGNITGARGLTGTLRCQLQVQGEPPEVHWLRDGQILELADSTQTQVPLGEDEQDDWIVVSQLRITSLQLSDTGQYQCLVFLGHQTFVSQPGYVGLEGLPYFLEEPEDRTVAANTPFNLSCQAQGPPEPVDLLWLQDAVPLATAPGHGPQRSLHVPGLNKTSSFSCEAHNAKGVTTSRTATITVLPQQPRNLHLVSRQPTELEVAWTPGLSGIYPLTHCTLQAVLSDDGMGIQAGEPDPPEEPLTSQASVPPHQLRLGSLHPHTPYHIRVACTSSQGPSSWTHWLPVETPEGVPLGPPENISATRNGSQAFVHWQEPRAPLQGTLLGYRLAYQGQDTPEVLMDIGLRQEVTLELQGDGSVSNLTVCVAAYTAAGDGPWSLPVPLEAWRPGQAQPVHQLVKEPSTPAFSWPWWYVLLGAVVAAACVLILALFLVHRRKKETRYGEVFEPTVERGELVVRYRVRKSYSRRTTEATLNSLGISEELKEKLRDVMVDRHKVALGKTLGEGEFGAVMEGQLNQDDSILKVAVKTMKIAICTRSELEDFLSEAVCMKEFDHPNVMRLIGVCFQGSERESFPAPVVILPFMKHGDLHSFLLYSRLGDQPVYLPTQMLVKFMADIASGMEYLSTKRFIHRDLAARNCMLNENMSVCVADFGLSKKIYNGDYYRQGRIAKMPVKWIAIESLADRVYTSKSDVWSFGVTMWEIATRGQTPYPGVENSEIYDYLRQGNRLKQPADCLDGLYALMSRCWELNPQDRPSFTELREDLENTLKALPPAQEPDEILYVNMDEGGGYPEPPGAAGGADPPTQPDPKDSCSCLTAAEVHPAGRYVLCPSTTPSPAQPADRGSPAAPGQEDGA
# [15] = tested on: BaF3; assay: Antitumor activity against mouse BaF3/TEL-AXL cells xenografted in BALB/c nude mouse assessed as tumor growth inhibition at 25 mg/kg, po administered once daily for 14 days by caliper method; assay type: functional; conditions: 336 h, time 14 day, read-out: TGI
# [16] = AUC(0 to infinity) in ICR mouse at 1 mg/kg, iv measured upto 24 hrs by LC-MS analysis; assay type: ADME, organism-based; design: route intravenous, dose 1 mg/kg, time <=24; conditions: in vivo
# Tyrosine-protein kinase receptor TYRO3, sequence (Q06418 whole entry): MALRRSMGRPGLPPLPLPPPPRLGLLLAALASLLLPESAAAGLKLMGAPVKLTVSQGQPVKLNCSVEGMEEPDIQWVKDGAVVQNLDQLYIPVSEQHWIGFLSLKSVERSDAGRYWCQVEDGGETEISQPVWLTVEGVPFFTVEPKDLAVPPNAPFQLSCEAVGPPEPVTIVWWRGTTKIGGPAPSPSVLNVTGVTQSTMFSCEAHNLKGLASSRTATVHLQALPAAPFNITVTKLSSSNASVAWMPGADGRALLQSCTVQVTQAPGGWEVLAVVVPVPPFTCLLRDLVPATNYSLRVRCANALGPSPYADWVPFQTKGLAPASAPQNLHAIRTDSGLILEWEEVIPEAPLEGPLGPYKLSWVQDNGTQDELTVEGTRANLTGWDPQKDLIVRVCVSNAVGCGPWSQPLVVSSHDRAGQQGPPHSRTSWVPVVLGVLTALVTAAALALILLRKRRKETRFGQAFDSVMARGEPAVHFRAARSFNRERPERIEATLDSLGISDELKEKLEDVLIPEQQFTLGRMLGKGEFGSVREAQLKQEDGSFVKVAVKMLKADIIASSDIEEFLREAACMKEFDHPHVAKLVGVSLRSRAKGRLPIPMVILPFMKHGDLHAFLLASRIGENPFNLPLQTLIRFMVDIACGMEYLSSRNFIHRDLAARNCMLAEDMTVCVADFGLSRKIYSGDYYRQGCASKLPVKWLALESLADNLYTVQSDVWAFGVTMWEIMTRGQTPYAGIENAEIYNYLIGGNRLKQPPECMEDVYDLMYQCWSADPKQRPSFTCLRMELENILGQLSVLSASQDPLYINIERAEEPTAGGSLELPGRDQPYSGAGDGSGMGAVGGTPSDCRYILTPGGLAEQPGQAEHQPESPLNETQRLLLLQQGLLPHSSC
# Insulin-like growth factor 1 receptor, sequence (P08069 31-736 limits assumed): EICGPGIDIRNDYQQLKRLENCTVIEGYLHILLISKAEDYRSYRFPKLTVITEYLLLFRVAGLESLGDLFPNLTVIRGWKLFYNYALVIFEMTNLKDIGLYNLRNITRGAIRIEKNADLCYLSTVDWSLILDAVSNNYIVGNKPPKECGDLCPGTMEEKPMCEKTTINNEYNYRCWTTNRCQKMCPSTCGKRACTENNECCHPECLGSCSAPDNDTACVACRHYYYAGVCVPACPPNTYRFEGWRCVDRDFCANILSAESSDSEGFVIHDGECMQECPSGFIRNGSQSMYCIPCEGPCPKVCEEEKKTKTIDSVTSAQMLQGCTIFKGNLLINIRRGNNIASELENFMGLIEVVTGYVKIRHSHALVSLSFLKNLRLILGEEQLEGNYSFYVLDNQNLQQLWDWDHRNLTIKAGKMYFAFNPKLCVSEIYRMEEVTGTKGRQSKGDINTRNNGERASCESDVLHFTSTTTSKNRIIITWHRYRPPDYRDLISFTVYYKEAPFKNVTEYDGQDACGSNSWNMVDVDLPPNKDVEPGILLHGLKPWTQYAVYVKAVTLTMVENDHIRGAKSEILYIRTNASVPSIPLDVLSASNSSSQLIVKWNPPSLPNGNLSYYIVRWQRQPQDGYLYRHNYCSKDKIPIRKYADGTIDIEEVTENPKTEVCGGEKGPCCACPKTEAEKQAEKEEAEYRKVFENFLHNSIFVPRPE
# Insulin-like growth factor 1 receptor, sequence (P08069 741-1367 limits assumed): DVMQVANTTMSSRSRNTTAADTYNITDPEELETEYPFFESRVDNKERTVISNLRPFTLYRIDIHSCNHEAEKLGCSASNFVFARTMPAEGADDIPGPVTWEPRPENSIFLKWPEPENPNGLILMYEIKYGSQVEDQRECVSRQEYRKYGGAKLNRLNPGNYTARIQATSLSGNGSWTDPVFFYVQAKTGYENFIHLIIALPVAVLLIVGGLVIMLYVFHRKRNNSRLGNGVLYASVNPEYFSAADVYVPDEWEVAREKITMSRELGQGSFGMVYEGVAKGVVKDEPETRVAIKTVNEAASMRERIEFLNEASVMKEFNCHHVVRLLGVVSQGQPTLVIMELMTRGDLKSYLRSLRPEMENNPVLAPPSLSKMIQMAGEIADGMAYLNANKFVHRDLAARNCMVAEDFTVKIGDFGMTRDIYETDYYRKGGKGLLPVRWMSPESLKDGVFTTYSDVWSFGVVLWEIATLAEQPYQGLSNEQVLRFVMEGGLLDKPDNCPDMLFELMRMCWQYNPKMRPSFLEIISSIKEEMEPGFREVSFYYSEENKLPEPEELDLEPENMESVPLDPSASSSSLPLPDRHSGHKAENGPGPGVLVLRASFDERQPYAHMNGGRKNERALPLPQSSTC
# Tyrosine-protein kinase ABL1, sequence (P00519 whole entry): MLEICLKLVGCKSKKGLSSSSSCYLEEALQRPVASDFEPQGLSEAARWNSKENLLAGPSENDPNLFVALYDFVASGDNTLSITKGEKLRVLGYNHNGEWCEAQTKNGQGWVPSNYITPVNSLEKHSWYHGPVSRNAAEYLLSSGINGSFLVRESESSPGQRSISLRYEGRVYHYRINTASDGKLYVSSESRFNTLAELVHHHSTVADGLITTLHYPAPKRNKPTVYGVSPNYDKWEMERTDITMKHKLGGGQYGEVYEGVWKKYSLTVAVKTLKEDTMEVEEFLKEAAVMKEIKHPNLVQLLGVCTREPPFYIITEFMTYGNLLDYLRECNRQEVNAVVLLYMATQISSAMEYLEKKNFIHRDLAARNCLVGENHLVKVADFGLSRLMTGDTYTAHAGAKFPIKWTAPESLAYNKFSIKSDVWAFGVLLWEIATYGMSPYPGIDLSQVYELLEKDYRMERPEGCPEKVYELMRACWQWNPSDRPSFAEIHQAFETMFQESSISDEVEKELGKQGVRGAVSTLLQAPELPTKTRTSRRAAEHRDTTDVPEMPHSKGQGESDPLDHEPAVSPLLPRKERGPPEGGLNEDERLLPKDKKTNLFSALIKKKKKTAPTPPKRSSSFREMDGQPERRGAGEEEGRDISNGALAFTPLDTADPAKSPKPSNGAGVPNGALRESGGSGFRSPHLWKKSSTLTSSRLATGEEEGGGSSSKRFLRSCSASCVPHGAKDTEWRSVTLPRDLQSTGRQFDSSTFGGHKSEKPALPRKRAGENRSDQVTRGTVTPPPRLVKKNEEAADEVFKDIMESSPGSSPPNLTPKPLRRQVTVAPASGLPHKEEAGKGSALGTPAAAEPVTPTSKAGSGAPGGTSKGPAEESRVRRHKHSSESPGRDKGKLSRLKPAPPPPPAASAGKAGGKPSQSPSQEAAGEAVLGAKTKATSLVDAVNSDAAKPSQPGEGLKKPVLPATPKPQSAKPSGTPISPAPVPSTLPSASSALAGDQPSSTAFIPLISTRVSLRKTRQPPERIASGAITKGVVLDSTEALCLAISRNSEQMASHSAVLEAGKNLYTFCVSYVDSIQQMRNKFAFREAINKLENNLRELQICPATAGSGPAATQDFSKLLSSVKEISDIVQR
# ALK tyrosine kinase receptor, sequence (Q9UM73 whole entry): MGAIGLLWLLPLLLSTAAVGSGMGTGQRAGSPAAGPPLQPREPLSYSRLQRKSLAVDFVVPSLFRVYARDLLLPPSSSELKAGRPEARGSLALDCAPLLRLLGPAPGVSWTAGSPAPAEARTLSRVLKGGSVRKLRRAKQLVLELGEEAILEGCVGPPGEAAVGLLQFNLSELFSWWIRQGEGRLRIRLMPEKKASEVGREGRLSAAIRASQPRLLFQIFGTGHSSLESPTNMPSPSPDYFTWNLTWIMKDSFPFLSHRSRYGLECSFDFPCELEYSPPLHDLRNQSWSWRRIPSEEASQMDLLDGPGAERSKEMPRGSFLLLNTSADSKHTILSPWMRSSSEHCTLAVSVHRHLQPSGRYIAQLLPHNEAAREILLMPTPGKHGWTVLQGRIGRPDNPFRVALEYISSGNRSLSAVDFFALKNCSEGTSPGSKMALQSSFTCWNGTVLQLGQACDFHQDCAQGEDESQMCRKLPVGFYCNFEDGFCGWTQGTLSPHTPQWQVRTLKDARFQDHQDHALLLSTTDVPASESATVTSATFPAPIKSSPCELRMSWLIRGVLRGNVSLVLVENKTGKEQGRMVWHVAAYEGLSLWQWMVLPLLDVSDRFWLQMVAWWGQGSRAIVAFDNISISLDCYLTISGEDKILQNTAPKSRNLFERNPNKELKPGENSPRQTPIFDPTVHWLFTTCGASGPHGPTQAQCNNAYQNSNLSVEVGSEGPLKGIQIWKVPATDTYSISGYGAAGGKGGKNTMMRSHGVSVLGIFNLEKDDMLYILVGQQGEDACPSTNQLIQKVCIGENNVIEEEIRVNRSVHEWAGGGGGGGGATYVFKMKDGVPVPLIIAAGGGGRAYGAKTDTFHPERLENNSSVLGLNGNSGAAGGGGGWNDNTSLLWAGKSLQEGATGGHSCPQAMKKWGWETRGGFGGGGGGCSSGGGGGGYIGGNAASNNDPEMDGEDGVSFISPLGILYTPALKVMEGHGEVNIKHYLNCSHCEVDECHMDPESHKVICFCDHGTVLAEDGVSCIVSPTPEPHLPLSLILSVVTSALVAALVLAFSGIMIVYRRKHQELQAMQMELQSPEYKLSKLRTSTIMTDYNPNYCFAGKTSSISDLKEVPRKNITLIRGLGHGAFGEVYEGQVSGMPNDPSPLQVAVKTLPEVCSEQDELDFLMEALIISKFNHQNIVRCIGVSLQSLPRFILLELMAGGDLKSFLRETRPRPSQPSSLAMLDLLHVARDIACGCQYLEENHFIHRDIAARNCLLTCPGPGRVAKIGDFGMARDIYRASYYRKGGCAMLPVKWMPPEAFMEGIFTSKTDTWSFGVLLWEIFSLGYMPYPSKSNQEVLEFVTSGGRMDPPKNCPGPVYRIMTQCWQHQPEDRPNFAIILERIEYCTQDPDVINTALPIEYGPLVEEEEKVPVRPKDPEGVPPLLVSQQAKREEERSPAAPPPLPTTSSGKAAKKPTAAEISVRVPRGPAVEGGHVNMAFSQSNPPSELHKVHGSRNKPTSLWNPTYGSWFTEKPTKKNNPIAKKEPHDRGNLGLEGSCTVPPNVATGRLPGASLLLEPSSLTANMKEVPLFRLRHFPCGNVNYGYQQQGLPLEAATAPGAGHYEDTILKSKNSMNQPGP
structure (smiles),measurement,setting,value
CC(C)n1cc(C(=O)Nc2ccc(Oc3ccnc(NC(=O)C4CC4)c3)c(F)c2)c(=O)n(-c2ccc(F)cc2)c1=O,IC50,[1],> 1 µM
same,IC50,[2],> 1 µM
same,IC50,[3],> 1 µM
same,AUC(0-inf),[4],25100 ng·h/mL
same,IC50,[5],> 0.1 µM
same,IC50,[6],0.001 µM
same,Activity,[7],inactive
same,IC50,[8],> 10 µM
same,IC50,[9],> 10 µM
same,IC50,[10],> 10 µM
same,inhibition in vivo at 5 mg/kg,[11],106%
same,inhibition,[12],Dose-Dependent Effect
same,IC50,[13],> 1 µM
same,IC50,[14],0.0009 µM
same,inhibition in vivo at 25 mg/kg,[15],106%
same,AUC(0-inf),[16],7360 ng·h/mL
